Measurements reported in patent publication US20240148679A1, “METHODS AND COMPOSITIONS RELATED TO TREATMENT AND PREVENTION OF CANCER BY INHIBITION OF DGAT1 AND DGAT2” (Ohio State Innovation Foundation, priority 2019, published 2024).

Assays:
liver cancer cells = assay: Liver cancer cell death with DGAT1 and DGAT2 inhibitors alone or in combination; format: cell-based, human
Experimental: MHCC97L 6×10^4 12 well plate, treated at 24 hours with 1% FBS DMEM with DGAT1 and DGAT2 inhibitors. Picture taken on day 4.
HEPG2 6×10^4 12 well plate, treated at 24 hours with 1% FBS DMEM with DGAT1 and DGAT2 inhibitors. Picture taken on day 4.
HeG2 8×10^4 12 well plate, treated at 24 hours with 1% FBS DMEM with DGAT1 and DGAT2 inhibitors. Picture taken on day 4.
Huh7 4×10^4 12-well plate, treated at 24 hours with 1% FBS DMEM with DGAT1 and DGAT2 inhibitors. Picture taken on day 4.
Hep3B 6×10^4 12-well plate, treated at 24 hours with 1% FBS DMEM with DGAT1 and DGAT2 inhibitors. Picture taken on day 4.
Huh7 6×10^4 12-well plate, treated at 24 hours with 1% FBS DMEM with DGAT1 and DGAT2 inhibitors. Picture taken on day 4.

GBM cells (U251) = assay: Seahorse analysis of OCR and ECAR; format: cell-based, human; settings: 20 μg/ml for 24 hours; for oxygen consumption rate (OCR): vs control cells
Experimental: (A, B) Transmission electron microscopy (TEM) analysis of the mitochondrial morphology in GBM cells (U251) treated with the DGAT1 inhibitor A-922500 (20 μg/ml) or DGAT2 inhibitor PF-06424439 (20 μg/ml) for 24 hr and shown in a or infected with shRNA-expressing lentivirus against DGAT1 for 48 hr and shown in b. Scale bar, 500 nm. Mitochondria are indicated by red arrows. Mitochondria length and loss of cristae (%) were quantified by ImageJ over 100 mitochondria in each group (mean±SEM). Statistical significance was determined by one-way ANOVA. * P<0.0001. (C, D) Representative fluorescence images of LDs (green) and mitochondria (red) in U251 cells treated with DGAT1 or DGAT2 inhibitor and shown in c or shRNA in (D) as in panels (A, B). LDs were stained with BODIPY 493/503 (green) and mitochondria were stained with MitoTracker Red. Nuclei were stained with Hoechst 33342 (blue). Scale bar, m. The percentage of cells with tubular or fragmented mitochondria was quantified by ImageJ in more than 100 cells (mean±SEM). Statistical significance was determined by one-way ANOVA. * P<0.001. (E, F) Analysis of mitochondrial activity by measuring oxygen consumption rate (OCR) in U251 cells treated with DGAT1/DGAT2 inhibitors or shRNA as in panels (A, B). Lower panels show the quantification of relative basal and maximal OCR change (details please see Methods). Data represent the mean±SD from 3 independent experiments. Basal OCR was determined as OCR before oligomycin subtract OCR after rotenone addition, and maximal OCR was determined as OCR after FCCP subtract OCR after rotenone addition. Statistical significance was determined by one-way ANOVA. * P<0.0001. (G, H) Representative fluorescence images of reactive oxygen species (ROS) production and mitochondria (green) in U251 cells treated with DGAT1/DGAT2 inhibitors or shRNA as in panels (A, B). ROS were detected with CellROX Deep Red, and mitochondria were stained with MitoTracker Green. Nuclei were stained with Hoechst 33342 (blue). Scale bar, 10 m. ROS levels were quantified by ImageJ in more than 100 cells (mean±SD). Statistical significance was determined by one-way ANOVA. * P<0.0001. (I, J) Representative fluorescence images of ROS levels (red) detected by CellROX Deep Red in U251 cells treated with the DGAT1 inhibitor or shRNA as in panels a and b in the presence or absence of N-acetyl-cysteine (NAC, 1 mM). Nuclei were stained with Hoechst 33342 (blue). Scale bar, 10 m. ROS levels were quantified by ImageJ in more than 100 cells (mean±SD) (right upper panels). Live and dead cells were counted by trypan blue staining after treatment for 3 days (mean±SD, n=3) (right bottom panels). Statistical significance was determined by one-way ANOVA. * P<0.0001. […]

[1] = DGAT1 inhibitor in combination with DGAT2 inhibitor

| SMILES | liver cancer cell death (liver cancer cells; [1]) | liver cancer cell death (liver cancer cells; each single inhibitor) | extracellular acidification rate (ECAR) (GBM cells (U251)) | oxygen consumption rate (OCR) (GBM cells (U251)) |
| --- | --- | --- | --- | --- |
| CS(=O)(=O)O.O=C([C@@H]1CCCN(c2ccc3[nH]c(C4(n5cc(Cl)cn5)CC4)nc3n2)C1)N1CCCC1 [PF-06424439] | effective to kill liver cancer cells | no ability to induce liver cancer cell death | did not affect | no reduction was observed |
| O=C(Nc1ccccc1)Nc1ccc(-c2ccc(C(=O)[C@@H]3CCC[C@H]3C(=O)O)cc2)cc1 [A-922500] | effective to kill liver cancer cells | no ability to induce liver cancer cell death | did not affect | markedly reduced |
